In patent US10206930B2, “Methods for treating T-cell acute lymphoblastic leukemia” (New York University, priority 2015, dated 2019):

What was measured:
[1] = tested on: human T-ALL cells (CUTLL1); assay: Genome-wide expression analysis (RNA-seq) of treated T-ALL cells; type: cell-based
Protocol: Whole RNA was extracted from 1-5×10^6 T-ALL cells or primary cells using the RNeasy kit (QIAGEN) according to the manufacturer's protocol. Poly(A)^+ RNA was enriched using magnetic oligo(dT)-containing beads (Invitrogen). cDNA was prepared and strand-specific libraries were constructed using the dUTP method as described previously (Zhong et al., “High-Throughput Illumina Strand-Specific RNA Sequencing Library Preparation,” Cold Spring Harb. Protoc. 2011:940-949 (2011), which is hereby incorporated by reference in its entirety). Libraries were sequenced on the IIlumina HiSeq 2000 using the 50-base-pair single-read method.
Differential gene expression analysis was performed for each matched knockdown versus control pair, separately in each biological or technical replicate in each of two cell lines (CUTLL1 and CEM). Three types of comparisons were tested: (1) JMJD3 knockdown versus Renilla; (2) JMJD3 knockdown versus UTX knockdown; and (3) UTX knockdown versus Renilla. DEGseq44 was used to analyze (a) matched knockdown—Renilla replicates in separate DEGseq runs and (b) all replicates on a combined DEGexp run. For the mouse (Utx knockout) samples, spleen and bone marrow from a wild-type male (referred to as animal #9), as well as spleen from a wild-type female (animal #10), were compared with spleen and bone marrow from a knockout male (#23) and spleen from another knockout male (#27) (see also the GEO accession G5E56696). For illustration, scatter plots (FIG. 4D and FIGS. 5G-I) were created using values obtained from DEGseq analysis of merged biological and/or technical replicates. Gene RNA-seq FPKM values were computed using GenomicTools (Tsirigos et al., “GenomicTools: A Computational Platform for Developing High-Throughput Analytics in Genomics,” Bioinformatics 28:282-283 (2012), which is hereby incorporated by reference in its entirety). The P-value cutoff for differential expression was set at 1×10^−5, with the minimum absolute log2 fold change set at 0.5.

[2] = tested on: human T-ALL cell lines and primary human T-ALL cells; assay: Cell growth, annexin V apoptosis and BrdU cell cycle analysis of T-ALL cells; type: cell-based; design: dose or concentration left out as unconfirmed
Description: Mice, Cell Culture and Primary Cell Samples. The Jmjd3 (Satoh et al., “The Jmjd3-Irf4 Axis Regulates M2 Macrophage Polarization and Host Responses Against Helminth Infection,” Nature Immunol. 11:936-944 (2010), which is hereby incorporated in its entirety) and Utx (Welstead et al., “X-linked H3K27me3 Demethylase Utx is Required for Embryonic Development in a Sex-Specific Manner,” Proc. Natl. Acad. Sci. USA 109:13004-13009 (2012), which is hereby incorporated by reference in its entirety) knockout mouse models, as well as the corresponding genotyping strategy, have been described previously. All animals used in this study were treated according to IACU protocols. The human T-ALL cell lines CUTLL1 (Palomero et al., “CUTLL1, a Novel Human T-Cell Lymphoma Cell Line With t(7; 9) Rearrangement, Aberrant NOTCH1 Activation and High Sensitivity to c-Secretase Inhibitors,” Leukemia 20:1279-1287 (2006), which is hereby incorporated by reference in its entirety), P12-Ichikawa, Loucy, DND41, CEM and Jurkat and the myeloid leukaemia cell lines (THP-1 and HL-60), as well as the mouse T-ALL line (720) (Sharma et al., “Notch1 Contributes to Mouse T-cell Leukemia by Directly Inducing the Expression of c-myc,” Mol. Cell. Biol. 26:8022-8031 (2006), which is hereby incorporated by reference in its entirety), were cultured in RPMI 1640 medium supplemented with 20% FBS and penicillin and streptomycin. […] Primary human samples were collected by collaborating institutions with informed consent and were analyzed under the supervision of the Columbia University Medical Center and St. Jude Children's Research Hospital Institutional Review Boards. […]
T-ALL cells were infected twice with shRNA-expressing retroviruses and selected using puromycin. […] For the cell cycle analysis, 5-bromodeoxyuridine (BrdU; 10 mM) was added for a 1 hour pulse, and incorporation into DNA was determined by using the BrdU Flow Kit (BD Biosciences). Apoptosis was studied by quantification of annexin V staining using the BD Biosciences kit and flow cytometry according to standard protocols provided by the manufacturer. […]

[3] = tested on: H3K27me3 levels at repressed genes; assay: H3K27me3 ChIP at repressed genes upon GSKJ4 treatment; type: cell-based, human; conditions: 24 to 72 hours post-GSKJ4 treatment
Protocol: ChIP experiments were performed as described previously (Ntziachristos et al., “Genetic Inactivation of the Polycomb Repressive Complex 2 in T Cell Acute Lymphoblastic Leukemia,” Nature Med. 18:298-303 (2012), which is hereby incorporated by reference in its entirety). In brief, for the analysis of histone marks, the cells were fixed with 1% formaldehyde for 10 minutes at 25° C. and lysed them by the addition of nucleus incubation buffer (15 mM Tris, pH 7.5, 60 mM KCl, 150 mM NaCl, 15 mM MgCl2, 1 mM CaCl2, 250 mM sucrose and 0.3% NP-40) and incubation at 4° C. for 10 minutes. […]
First, enriched ChIP-seq windows were identified separately for each of the two samples under comparison using a window-based approach and the binomial probability distribution to compare signal reads with control reads in each window. Subsequently, for each genomic window enriched in at least one of the two samples, the total number of reads was determined, and the window read counts were normalized using quantile normalization across biological replicates and samples before comparison. […] This comparison was performed independently at different H3K27me3 read density levels to control for artificially high fold changes due to low read counts in the denominator. […]

[4] = tested on: myeloid leukaemia cells, stromal cells and haematopoietic progenitor cells; assay: Growth of non-T-ALL control cells under GSKJ4; type: cell-based; conditions: FIGS. 12L-12M
T-ALL cells = assay: IC50 of GSKJ4 on T-ALL cell proliferation, normalized to control inhibitor GSKJ5; type: cell-based; conditions: Homo sapiens, 120 h, 5 days treatment, FIG. 11A CUTLL1, read-out: IC50 determined for T-ALL cells
[5] = tested on: T-ALL cell lines (CUTLL1, CEM and P12); assay: Subcutaneous or intravenous xenograft of shRNA-treated T-ALL cell lines; type: in vivo, mouse; conditions: immunocompromised NRG mice; compared with shRenilla-treated cell lines
Protocol: Studies were conducted as previously published (Ntziachristos et al., “Genetic Inactivation of the Polycomb Repressive Complex 2 in T Cell Acute Lymphoblastic Leukemia,” Nature Med. 18:298-303 (2012), which is hereby incorporated by reference in its entirety). In both cases, CUTLL1, P12 or CEM T-ALL cells expressing luciferase (FUW-LUC) and the corresponding shRNA (shJMJD3, shUTX or shRenilla) were used. For the intravenous studies, 1×10^6 cells were injected retroorbitally into sublethally irradiated female NRG (NOD Rag1^−/−Il2rg^−/−) mice. For subcutaneous studies, 1×10^6 cells were mixed with an equal volume of BD Matrigel basement membrane and injected into the flanks of female NOD-SCID mice. In both cases, cell growth was monitored every 2 days using IVIS (Caliper, PerkinElmer).

human T-ALL cells = assay: shRNA knockdown: loss of representation studies and apoptosis assays; type: cell-based; conditions: shRNA treatment
Protocol: T-ALL cells were infected twice with shRNA-expressing retroviruses and selected using puromycin. Expression studies took place at different time points during the selection period, and the results are presented from day 4 during selection. […] For the cell cycle analysis, 5-bromodeoxyuridine (BrdU; 10 mM) was added for a 1 hour pulse, and incorporation into DNA was determined by using the BrdU Flow Kit (BD Biosciences). Apoptosis was studied by quantification of annexin V staining using the BD Biosciences kit and flow cytometry according to standard protocols provided by the manufacturer. Doxycycline was used at […] final concentration.
Protein-G-coated magnetic beads were purchased from Invitrogen. […] Reporter fluorescence was used (as determined by flow cytometry) for the quantification of shRNA.

[6] = GSKJ4 vs control inhibitor GSKJ5

## CCOC(=O)CCNc1cc(N2CCc3ccccc3CC2)nc(-c2ccccn2)n1 [GSKJ4, ethyl 3-((6-(4,5-dihydro-1H-benzo[d]azepin-3(2H)-yl)-2-(pyridin-2-yl)pyrimidin-4-yl)amino)propanoate]
[1]; CUTLL1, 72 hours of treatment with GSKJ4
  number of downregulated genes: 486 genes
[2]; [6]
  apoptosis (annexin V): increased apoptosis
  cell cycle effect: cell cycle arrest
[2]; GSKJ4 vs control inhibitor GSKJ5, 24-72 hours
  growth of human T-ALL cell lines and primary human T-ALL cells: significantly affected the growth
[3]
  H3K27me3 levels at repressed genes: increase in the H3K27me3 levels
[4]
  growth of myeloid leukaemia cells, stromal cells and haematopoietic progenitor cells: unaffected
T-ALL cells
  IC50: 2 µM

B1: shJMJD3B: shRNA against JMJD3, SEQ ID NO: 4 (nucleic acid)
chain: ACACCAGCAGTAGCAACAGCAATAGTGAAGCCACAGATGTATTGCTGTTGCTACTGCTGGTGG
[5]
  in vivo growth of transplanted T-ALL cells: significant growth disadvantage

B2: shUTX: shRNA against UTX, SEQ ID NO: 5 (nucleic acid)
chain: ACACAAGGTAGTCTACAGAATATAGTGAAGCCACAGATGTATATTCTGTAGACTACCTTGTGG
[1]; shRNA knockdown
  number of significantly downregulated protein-coding genes: 46 genes
  number of significantly upregulated protein-coding genes: 189 genes
Human T-ALL cells
  viability of leukaemic cells: not

B3: shJMJD3A: shRNA against JMJD3, SEQ ID NO: 3 (nucleic acid)
chain: CAGGGAAGTTTCGAGAAGTCCTATAGTGAAGCCACAGATGTATAGGACTCTCGAACTTCCCTT
[5]
  in vivo growth of transplanted T-ALL cells: significant growth disadvantage
